Experiments:
potassium arsenate = compound: O=[As]([O-])(O)O.[K+] [potassium arsenate]; assay: thermal stability z-score vs DMSO; higher = more thermally stabilized by treatment; conditions: HeLa; arsenate concentration 1 mM
Protocol: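 Cellular thermal proteome profiling in HeLa cells treated with 1 mM arsenate for 1 h (DMSO pretreatment), heated to ten temperatures (37-66.3 °C). Soluble protein was quantified by TMT mass spectrometry relative to DMSO controls; the thermal stability score was transformed to a z-score; mean of n = 3 experiments.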

lipoamide = compound: NC(=O)CCCCC1CCSS1 [lipoamide]; assay: as above; conditions: HeLa, lipoamide concentration 100 µM
Protocol: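 Cellular thermal proteome profiling in HeLa cells. Cells were treated with 100 µM lipoamide for 1 h, with or without 1 mM arsenate for a further 1 h, then heated to ten temperatures (37-66.3 °C), and soluble protein was quantified by TMT mass spectrometry relative to 0.1% DMSO controls. The thermal stability score (sum of log2 fold changes minus the abundance score) was transformed to a z-score; mean of n = 3 experiments.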

[1] = arsenate co-treatment: 1 mM arsenate 1 h
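Further: each temperature applied for 3 min, abundance score taken as mean log2 fold change at the two lowest temperatures, z-score obtained by mean subtraction and division by SD.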

Chain of UniProt Q13011 (Q13011 whole entry): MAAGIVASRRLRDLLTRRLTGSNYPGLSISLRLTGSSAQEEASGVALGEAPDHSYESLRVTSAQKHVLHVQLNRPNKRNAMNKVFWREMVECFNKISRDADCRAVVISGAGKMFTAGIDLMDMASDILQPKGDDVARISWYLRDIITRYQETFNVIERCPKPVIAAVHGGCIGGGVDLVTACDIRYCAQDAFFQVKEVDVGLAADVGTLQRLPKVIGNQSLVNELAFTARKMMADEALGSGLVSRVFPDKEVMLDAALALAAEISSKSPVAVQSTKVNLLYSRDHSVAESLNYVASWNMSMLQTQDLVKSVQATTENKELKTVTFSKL
Chain of UniProt Q9NPA3 (Q9NPA3 whole entry): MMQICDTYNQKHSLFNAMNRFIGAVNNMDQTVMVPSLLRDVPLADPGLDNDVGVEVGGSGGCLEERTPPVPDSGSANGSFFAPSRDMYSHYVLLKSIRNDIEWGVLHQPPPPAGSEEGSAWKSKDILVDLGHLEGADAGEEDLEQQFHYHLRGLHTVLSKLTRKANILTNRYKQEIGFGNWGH
Chain of UniProt Q92636 (Q92636 whole entry): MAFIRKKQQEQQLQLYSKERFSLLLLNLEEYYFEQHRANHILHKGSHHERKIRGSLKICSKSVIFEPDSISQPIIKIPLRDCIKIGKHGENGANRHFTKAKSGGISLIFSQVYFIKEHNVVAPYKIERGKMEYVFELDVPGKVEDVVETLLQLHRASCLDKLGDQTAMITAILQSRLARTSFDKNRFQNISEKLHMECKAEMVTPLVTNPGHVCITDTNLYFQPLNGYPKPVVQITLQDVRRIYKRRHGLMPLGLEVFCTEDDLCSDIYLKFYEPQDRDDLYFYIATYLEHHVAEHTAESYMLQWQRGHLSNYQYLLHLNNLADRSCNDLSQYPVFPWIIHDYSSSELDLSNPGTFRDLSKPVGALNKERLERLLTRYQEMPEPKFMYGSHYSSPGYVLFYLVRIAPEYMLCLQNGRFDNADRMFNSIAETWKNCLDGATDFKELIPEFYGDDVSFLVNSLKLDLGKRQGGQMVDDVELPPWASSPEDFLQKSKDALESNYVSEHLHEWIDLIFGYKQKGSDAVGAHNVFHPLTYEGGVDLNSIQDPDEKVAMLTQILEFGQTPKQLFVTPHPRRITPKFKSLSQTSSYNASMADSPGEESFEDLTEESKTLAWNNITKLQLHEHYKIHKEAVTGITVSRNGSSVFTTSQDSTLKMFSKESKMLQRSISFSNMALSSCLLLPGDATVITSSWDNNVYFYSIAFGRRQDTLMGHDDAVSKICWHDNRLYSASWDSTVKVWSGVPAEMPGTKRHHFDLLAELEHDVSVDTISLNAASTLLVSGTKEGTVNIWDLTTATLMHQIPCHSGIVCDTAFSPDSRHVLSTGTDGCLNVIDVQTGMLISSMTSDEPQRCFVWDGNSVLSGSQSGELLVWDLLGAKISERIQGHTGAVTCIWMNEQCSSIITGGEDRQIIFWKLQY
Chain of UniProt O94874 (O94874 whole entry): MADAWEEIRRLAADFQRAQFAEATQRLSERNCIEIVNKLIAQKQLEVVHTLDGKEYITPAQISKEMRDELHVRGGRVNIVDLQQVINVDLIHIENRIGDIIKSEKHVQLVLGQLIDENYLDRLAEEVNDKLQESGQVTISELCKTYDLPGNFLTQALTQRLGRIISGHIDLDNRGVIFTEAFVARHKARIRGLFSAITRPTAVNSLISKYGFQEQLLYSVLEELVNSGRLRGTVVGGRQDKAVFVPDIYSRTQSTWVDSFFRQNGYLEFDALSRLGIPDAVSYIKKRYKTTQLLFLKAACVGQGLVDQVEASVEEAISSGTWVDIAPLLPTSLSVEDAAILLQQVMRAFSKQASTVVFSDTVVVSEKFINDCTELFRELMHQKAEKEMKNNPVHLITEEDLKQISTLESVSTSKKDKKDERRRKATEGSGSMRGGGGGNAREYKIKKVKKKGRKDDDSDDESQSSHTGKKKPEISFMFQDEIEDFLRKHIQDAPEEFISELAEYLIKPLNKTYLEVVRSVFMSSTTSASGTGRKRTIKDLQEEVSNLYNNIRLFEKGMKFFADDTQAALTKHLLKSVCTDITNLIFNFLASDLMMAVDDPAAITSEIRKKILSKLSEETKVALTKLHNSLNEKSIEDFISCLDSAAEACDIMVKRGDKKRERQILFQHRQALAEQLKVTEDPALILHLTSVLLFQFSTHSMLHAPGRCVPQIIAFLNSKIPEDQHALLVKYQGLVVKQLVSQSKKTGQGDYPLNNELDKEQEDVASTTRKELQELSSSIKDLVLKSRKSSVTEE
Chain of UniProt O14965 (O14965 whole entry): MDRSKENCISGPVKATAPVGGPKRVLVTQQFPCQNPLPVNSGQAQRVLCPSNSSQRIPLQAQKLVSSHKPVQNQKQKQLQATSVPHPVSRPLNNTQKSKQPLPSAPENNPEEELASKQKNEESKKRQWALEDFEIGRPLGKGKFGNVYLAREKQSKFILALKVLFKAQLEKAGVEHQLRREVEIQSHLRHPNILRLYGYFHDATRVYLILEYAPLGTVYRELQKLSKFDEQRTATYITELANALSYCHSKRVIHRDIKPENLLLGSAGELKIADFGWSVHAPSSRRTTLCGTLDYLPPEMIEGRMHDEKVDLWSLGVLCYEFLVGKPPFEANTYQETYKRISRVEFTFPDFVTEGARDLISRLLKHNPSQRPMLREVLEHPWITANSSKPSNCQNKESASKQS
Chain of UniProt O95243 (O95243 whole entry): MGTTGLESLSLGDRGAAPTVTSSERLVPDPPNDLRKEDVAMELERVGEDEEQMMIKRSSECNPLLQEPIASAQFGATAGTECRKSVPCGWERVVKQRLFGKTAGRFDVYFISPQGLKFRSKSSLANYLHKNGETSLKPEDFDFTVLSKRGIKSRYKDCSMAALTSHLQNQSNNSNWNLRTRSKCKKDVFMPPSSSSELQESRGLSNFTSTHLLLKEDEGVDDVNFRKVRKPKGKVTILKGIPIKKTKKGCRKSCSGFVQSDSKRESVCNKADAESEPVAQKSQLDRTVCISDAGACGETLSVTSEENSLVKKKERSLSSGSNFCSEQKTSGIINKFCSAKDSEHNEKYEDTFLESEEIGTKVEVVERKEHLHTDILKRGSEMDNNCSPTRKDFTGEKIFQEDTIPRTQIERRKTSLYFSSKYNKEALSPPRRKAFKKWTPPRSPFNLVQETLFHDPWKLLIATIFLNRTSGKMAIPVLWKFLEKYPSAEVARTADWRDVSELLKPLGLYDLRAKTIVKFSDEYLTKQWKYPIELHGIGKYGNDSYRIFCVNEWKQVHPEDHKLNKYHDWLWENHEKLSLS
Chain of UniProt Q5R3I4 (Q5R3I4 whole entry): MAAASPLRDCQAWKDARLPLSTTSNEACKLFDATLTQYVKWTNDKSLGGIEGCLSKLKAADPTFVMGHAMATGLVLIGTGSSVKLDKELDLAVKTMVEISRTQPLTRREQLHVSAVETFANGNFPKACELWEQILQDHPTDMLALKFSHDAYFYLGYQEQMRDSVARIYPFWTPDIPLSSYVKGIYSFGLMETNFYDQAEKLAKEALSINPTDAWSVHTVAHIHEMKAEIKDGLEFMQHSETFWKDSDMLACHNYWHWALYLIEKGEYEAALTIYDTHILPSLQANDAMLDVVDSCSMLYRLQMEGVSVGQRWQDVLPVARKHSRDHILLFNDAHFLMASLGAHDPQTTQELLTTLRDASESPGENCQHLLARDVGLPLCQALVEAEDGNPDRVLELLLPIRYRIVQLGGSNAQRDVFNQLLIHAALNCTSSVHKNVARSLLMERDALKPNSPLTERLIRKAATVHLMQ
Chain of UniProt Q8IUH5 (Q8IUH5 whole entry): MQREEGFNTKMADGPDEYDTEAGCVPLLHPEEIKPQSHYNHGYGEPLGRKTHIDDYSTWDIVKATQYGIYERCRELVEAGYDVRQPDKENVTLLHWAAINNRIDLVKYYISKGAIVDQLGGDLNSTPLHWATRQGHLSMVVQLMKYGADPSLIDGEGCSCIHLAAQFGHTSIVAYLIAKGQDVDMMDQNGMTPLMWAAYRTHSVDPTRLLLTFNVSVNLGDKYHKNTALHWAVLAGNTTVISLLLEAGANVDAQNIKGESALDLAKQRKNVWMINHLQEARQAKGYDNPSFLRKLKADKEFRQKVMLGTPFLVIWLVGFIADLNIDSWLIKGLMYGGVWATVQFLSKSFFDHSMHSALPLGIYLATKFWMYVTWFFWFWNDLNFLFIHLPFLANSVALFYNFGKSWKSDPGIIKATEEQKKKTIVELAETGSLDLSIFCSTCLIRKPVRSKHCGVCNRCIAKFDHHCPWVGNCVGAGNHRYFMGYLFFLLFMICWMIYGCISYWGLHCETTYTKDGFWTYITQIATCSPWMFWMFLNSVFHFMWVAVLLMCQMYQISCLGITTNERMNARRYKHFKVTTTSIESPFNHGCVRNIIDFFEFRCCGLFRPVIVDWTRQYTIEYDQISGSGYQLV
Chain of UniProt P09110 (P09110 whole entry): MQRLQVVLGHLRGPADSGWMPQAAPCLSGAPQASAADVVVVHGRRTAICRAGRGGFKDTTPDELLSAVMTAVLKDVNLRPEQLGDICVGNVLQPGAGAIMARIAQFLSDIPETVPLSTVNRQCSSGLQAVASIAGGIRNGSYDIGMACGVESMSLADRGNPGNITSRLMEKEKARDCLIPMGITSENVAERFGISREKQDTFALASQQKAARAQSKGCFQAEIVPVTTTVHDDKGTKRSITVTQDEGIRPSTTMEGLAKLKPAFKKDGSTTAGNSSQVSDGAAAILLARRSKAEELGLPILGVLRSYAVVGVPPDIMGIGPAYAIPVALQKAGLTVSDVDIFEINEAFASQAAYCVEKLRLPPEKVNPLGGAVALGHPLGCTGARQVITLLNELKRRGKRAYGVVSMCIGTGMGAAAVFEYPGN
Chain of UniProt P62258 (P62258 whole entry): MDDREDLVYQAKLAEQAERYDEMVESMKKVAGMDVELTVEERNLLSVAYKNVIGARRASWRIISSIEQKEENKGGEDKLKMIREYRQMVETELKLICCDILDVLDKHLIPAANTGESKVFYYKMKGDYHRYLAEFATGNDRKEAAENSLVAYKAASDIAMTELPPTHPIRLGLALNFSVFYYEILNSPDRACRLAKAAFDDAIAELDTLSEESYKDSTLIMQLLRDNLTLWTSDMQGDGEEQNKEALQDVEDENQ

Row | Target | thermal stability z-score (potassium arsenate) | thermal stability z-score (lipoamide; [1]) | thermal stability z-score (lipoamide; arsenate co-treatment: none)
1 | MTX2 (UniProt O75431) | 0.0221 | -0.388 | -0.267
2 | CDC5L (UniProt Q99459) | -0.167 | 0.945 | 0.573
3 | TTC38 (UniProt Q5R3I4) | 1.01 | 1.43 | 1.43
4 | SLC1A5 (UniProt Q15758) | 0.00339 | 0.752 | 0.31
5 | NIPSNAP3A (UniProt Q9UFN0) | 0.337 | 0.144 | 0.432
6 | CCT6A (UniProt P40227) | -0.174 | 0.06 | -0.18
7 | BCL9L (UniProt Q86UU0) | -0.128 | 0.0577 | 0.096
8 | CASK (UniProt O14936) | -0.0604 | 0.388 | 0.281
9 | LACTB (UniProt P83111) | -0.604 | -0.437 | -0.129
10 | XIAP (UniProt P98170) | -0.747 | -0.12 | -0.0464
11 | MRTO4 (UniProt Q9UKD2) | 0.036 | 0.246 | 0.308
12 | KTI12 (UniProt Q96EK9) | -0.224 | 0.014 | -0.222
13 | CHMP1B (UniProt Q7LBR1) | 0.0259 | -0.234 | 0.171
14 | METTL13 (UniProt Q8N6R0) | 0.0691 | -0.507 | -0.621
15 | RNGTT (UniProt O60942) | -0.0249 | -0.0218 | 0.0305
16 | UFL1 (UniProt O94874) | 0.145 | -0.791 | -0.41
17 | MAGT1 (UniProt Q9H0U3) | 0.251 | -3.45 | -2.9
18 | CDK2 (UniProt P24941) | 0.48 | 1.12 | 0.288
19 | ATF1 (UniProt P18846) | -0.0555 | 1.13 | 1.84
20 | CPA4 (UniProt Q9UI42) | 0.188 | -0.883 | -0.642
21 | SLC30A5 (UniProt Q8TAD4) | -0.849 | -0.202 | -0.453
22 | MRPS30 (UniProt Q9NP92) | -0.147 | -0.185 | -0.539
23 | GMPR2 (UniProt Q9P2T1) | 0.121 | 0.37 | 0.368
24 | PPAT (UniProt Q06203) | -0.0713 | 0.306 | 0.28
25 | ECH1 (UniProt Q13011) | -0.0954 | -0.108 | 0.163
26 | PHB2 (UniProt Q99623) | 0.108 | 0.27 | 0.289
27 | PHB (UniProt P35232) | 0.222 | 0.394 | 0.55
28 | KCMF1 (UniProt Q9P0J7) | 0.636 | -0.251 | -0.483

Row | Target | thermal stability z-score (potassium arsenate) | thermal stability z-score (lipoamide; [1]) | thermal stability z-score (lipoamide; arsenate co-treatment: none)
29 | MRPL1 (UniProt Q9BYD6) | 0.374 | -0.253 | -0.245
30 | ZDHHC17 (UniProt Q8IUH5) | 0.191 | 0.571 | 1.07
31 | ARHGAP35 (UniProt Q9NRY4) | 0.128 | -0.512 | -0.145
32 | NFXL1 (UniProt Q6ZNB6) | -0.813 | -0.724 | -0.558
33 | MACROD1 (UniProt Q9BQ69) | 1.33 | 1.61 | 0.262
34 | IMPA2 (UniProt O14732) | -0.728 | 0.737 | 0.182
35 | TGOLN2 (UniProt O43493) | -0.275 | 0.152 | 0.0237
36 | PXDN (UniProt Q92626) | 0.0514 | -1.65 | -1.61
37 | GFM2 (UniProt Q969S9) | 0.226 | 0.216 | 0.105
38 | YWHAE (UniProt P62258) | -0.368 | 0.149 | 0.0341
39 | NSMAF (UniProt Q92636) | -0.758 | -0.123 | -0.458
40 | RNMT (UniProt O43148) | 0.381 | 0.428 | 0.541
41 | SNX8 (UniProt Q9Y5X2) | -0.369 | 1.1 | -0.149
42 | TSSC4 (UniProt Q9Y5U2) | -0.46 | 1.17 | 0.668
43 | RPL15 (UniProt P61313) | -0.589 | 0.537 | 0.113
44 | MID1IP1 (UniProt Q9NPA3) | 0.151 | -0.135 | 0.206
45 | MBD4 (UniProt O95243) | -0.571 | -0.0777 | 0.0091
46 | AURKA (UniProt O14965) | -0.391 | -0.091 | -0.269
47 | NOS1AP (UniProt O75052) | -1.45 | 0.676 | -0.0802
48 | SLC25A1 (UniProt P53007) | 0.43 | 1.03 | 0.6
49 | SMYD3 (UniProt Q9H7B4) | -0.25 | -0.135 | -0.101
50 | PRKCZ (UniProt Q05513) | -0.0717 | -0.134 | -0.119
51 | ACAA1 (UniProt P09110) | 0.919 | -0.181 | 0.335
52 | ISG20L2 (UniProt Q9H9L3) | -0.367 | -0.0445 | -0.0231
53 | UNC13D (UniProt Q70J99) | -0.283 | -0.15 | -0.154
54 | RPS20 (UniProt P60866) | -0.0402 | 1.14 | 1.14
55 | CAMSAP1 (UniProt Q5T5Y3) | -0.293 | 0.0305 | -0.371

Reference: the supplement of paper PMC12463676, “Small-molecule dissolution of stress granules by redox modulation benefits ALS models” (Nature Chemical Biology, 2025)
